In ChEMBL document CHEMBL1201862, “PubChem BioAssay data set” (2004):
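Grown in 96-well plates, cells were treated for 48 hours with each compound at five concentrations. Insufficient inhibition: endpoint recorded as highest concentration tested. GI50 is the concentration that inhibits growth by half.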 Active and inactive are the calls of the source. Cut-off read from the data, not from the text of the source: active = GI50 up to about 1.1 µM and inactive = higher.

How the values were obtained:
Assay in all cases: inhibition of tumour cell growth, NCI panel, 48 h
ACHN = system: ACHN
UACC-62 = system: UACC-62
UACC-257 = system: UACC-257
M19-MEL = system: M19-MEL
A549 = system: A549
RPMI-8226 = system: RPMI-8226
SR = system: SR
U-251 = system: U-251
NCI-H522 = system: NCI-H522
Malme-3M = system: Malme-3M
COLO 205 = system: COLO 205
LXFL 529 = system: LXFL 529
SF-268 = system: SF-268
CAKI-1 = system: CAKI-1
SF-539 = system: SF-539
NCI-H226 = system: NCI-H226
OVCAR-8 = system: OVCAR-8
NCI-H460 = system: NCI-H460
M14 = system: M14
HL-60 = system: HL-60
HCT-116 = system: HCT-116
KM12 = system: KM12
HOP-62 = system: HOP-62
DMS-273 = system: DMS-273
NCI-H23 = system: NCI-H23
SW-620 = system: SW-620
HCT-15 = system: HCT-15
KM-20L2 = system: KM-20L2
OVCAR-3 = system: OVCAR-3
IGROV-1 = system: IGROV-1
K562 = system: K562
LOX IMVI = system: LOX IMVI
UO-31 = system: UO-31
RXF 631 = system: RXF 631
CCRF-CEM = system: CCRF-CEM
SN12C = system: SN12C
MOLT-4 = system: MOLT-4
OVCAR-4 = system: OVCAR-4
SK-MEL-28 = system: SK-MEL-28
TK-10 = system: TK-10
HCC 2998 = system: HCC 2998
SNB-19 = system: SNB-19
786-0 = system: 786-0
SF-295 = system: SF-295
SK-MEL-2 = system: SK-MEL-2
XF498 = system: XF498
DMS-114 = system: DMS-114
HT-29 = system: HT-29
SK-OV-3 = system: SK-OV-3
EKVX = system: EKVX
OVCAR-5 = system: OVCAR-5
HOP-18 = system: HOP-18
DLD-1 = system: DLD-1
RXF 393 = system: RXF 393
SK-MEL-5 = system: SK-MEL-5
SNB-75 = system: SNB-75
SNB-78 = system: SNB-78
A498 = system: A498
HOP-92 = system: HOP-92

With `COc1ccc(/C=C/C(=O)c2sc(-n3nc(-c4ccccc4)cc3-c3ccccc3)nc2C)cc1OC` the GI50 (ACHN) was 49.8 µM (inactive), the GI50 (UACC-62) was 13.9 µM (inactive) and the GI50 (UACC-257) was 39.5 µM (inactive). For the same compound, the GI50 (M19-MEL) was 42.4 µM (inactive), the GI50 (A549) was 39.4 µM (inactive) and the GI50 (RPMI-8226) was 22.1 µM (inactive). For the same compound, the GI50 (SR) was 24.9 µM (inactive), the GI50 (U-251) was 28.8 µM (inactive) and the GI50 (NCI-H522) was 19.5 µM (inactive). The GI50 (Malme-3M) was 65.8 µM (inactive), the GI50 (COLO 205) was 36.6 µM (inactive) and the GI50 (LXFL 529) was 30.3 µM (inactive). The GI50 (SF-268) was 27.4 µM (inactive), the GI50 (CAKI-1) was 54.2 µM (inactive) and the GI50 (SF-539) was 26.7 µM (inactive). For the same compound, the GI50 (NCI-H226) was 31.6 µM (inactive), the GI50 (OVCAR-8) was 31.4 µM (inactive) and the GI50 (NCI-H460) was 56.8 µM (inactive). The GI50 (M14) was 62.8 µM (inactive), the GI50 (HL-60) was 25.2 µM (inactive) and the GI50 (HCT-116) was 31.3 µM (inactive). The GI50 (KM12) was 28.1 µM (inactive), the GI50 (HOP-62) was 57.1 µM (inactive) and the GI50 (DMS-273) was 36.6 µM (inactive). For the same compound, the GI50 (NCI-H23) was 34.9 µM (inactive), the GI50 (SW-620) was 43.8 µM (inactive) and the GI50 (HCT-15) was 32.4 µM. The GI50 (KM-20L2) was 20.9 µM (inactive), the GI50 (OVCAR-3) was 20.6 µM (inactive) and the GI50 (IGROV-1) was 24.3 µM (inactive). The GI50 (K562) was 23.6 µM (inactive), the GI50 (LOX IMVI) was 28.9 µM (inactive) and the GI50 (UO-31) was 42 µM (inactive). The GI50 (RXF 631) was 24.5 µM (inactive), the GI50 (CCRF-CEM) was 23.2 µM (inactive) and the GI50 (SN12C) was 31.6 µM (inactive). For the same compound, the GI50 (MOLT-4) was 20.3 µM (inactive), the GI50 (OVCAR-4) was 38.5 µM (inactive) and the GI50 (SK-MEL-28) was 37.9 µM (inactive). The GI50 (TK-10) was 62.5 µM (inactive), the GI50 (HCC 2998) was 51.1 µM (inactive) and the GI50 (SNB-19) was 36.6 µM (inactive). For the same compound, the GI50 (786-0) was 36.4 µM (inactive), the GI50 (SF-295) was 28.1 µM (inactive) and the GI50 (SK-MEL-2) was 62.1 µM (inactive). The GI50 (XF498) was 49.3 µM (inactive), the GI50 (DMS-114) was 28.1 µM (inactive) and the GI50 (HT-29) was 30.1 µM (inactive). The GI50 (SK-OV-3) was > 100 µM (inactive), the GI50 (EKVX) was 26.1 µM (inactive) and the GI50 (OVCAR-5) was 32.1 µM (inactive). The GI50 (HOP-18) was > 100 µM (inactive), the GI50 (DLD-1) was 21.8 µM (inactive) and the GI50 (RXF 393) was 57.1 µM (inactive).
For `COc1cc2c(c3oc(-c4ccc5c(c4)OCO5)c(O)c(=O)c13)CCC(C)(C)O2`, the GI50 (UACC-62) was > 100 µM (inactive), the GI50 (M19-MEL) was > 100 µM (inactive) and the GI50 (A549) was > 100 µM (inactive). The GI50 (RPMI-8226) was 34.5 µM (inactive), the GI50 (COLO 205) was > 100 µM (inactive) and the GI50 (LXFL 529) was 22.9 µM (inactive). The GI50 (SF-539) was > 100 µM (inactive), the GI50 (NCI-H226) was > 100 µM (inactive) and the GI50 (OVCAR-8) was > 100 µM (inactive). The GI50 (M14) was > 100 µM (inactive), the GI50 (HL-60) was > 100 µM (inactive) and the GI50 (KM12) was > 100 µM (inactive). The GI50 (SK-MEL-5) was > 100 µM (inactive), the GI50 (DMS-273) was > 100 µM (inactive) and the GI50 (NCI-H23) was > 100 µM (inactive). The GI50 (SW-620) was > 100 µM (inactive), the GI50 (HCT-15) was > 100 µM and the GI50 (SNB-75) was 12.3 µM (inactive). The GI50 (SNB-78) was > 100 µM (inactive), the GI50 (OVCAR-3) was > 100 µM (inactive) and the GI50 (IGROV-1) was > 100 µM (inactive). The GI50 (K562) was > 100 µM (inactive), the GI50 (LOX IMVI) was > 100 µM (inactive) and the GI50 (UO-31) was > 100 µM (inactive). The GI50 (RXF 631) was > 100 µM (inactive), the GI50 (CCRF-CEM) was 79.8 µM (inactive) and the GI50 (SN12C) was > 100 µM (inactive). For the same compound, the GI50 (MOLT-4) was > 100 µM (inactive), the GI50 (SK-MEL-28) was > 100 µM (inactive) and the GI50 (TK-10) was > 100 µM (inactive). The GI50 (A498) was > 100 µM (inactive), the GI50 (HCC 2998) was > 100 µM (inactive) and the GI50 (SNB-19) was > 100 µM (inactive). For the same compound, the GI50 (786-0) was > 100 µM (inactive), the GI50 (SF-295) was > 100 µM (inactive) and the GI50 (SK-MEL-2) was > 100 µM (inactive). The GI50 (DMS-114) was > 100 µM (inactive), the GI50 (HT-29) was > 100 µM (inactive) and the GI50 (SK-OV-3) was > 100 µM (inactive). For the same compound, the GI50 (EKVX) was > 100 µM (inactive), the GI50 (HOP-18) was > 100 µM (inactive) and the GI50 (DLD-1) was > 100 µM (inactive).
`Cn1cnnc1Sc1c([N+](=O)[O-])ncn1C` was tested, and the GI50 (HOP-92) was 26.5 µM (inactive), the GI50 (ACHN) was > 100 µM (inactive) and the GI50 (UACC-62) was > 100 µM (inactive). The GI50 (UACC-257) was > 100 µM (inactive), the GI50 (A549) was > 100 µM (inactive) and the GI50 (RPMI-8226) was 40.5 µM (inactive). The GI50 (SR) was 26.5 µM (inactive), the GI50 (U-251) was > 100 µM (inactive) and the GI50 (NCI-H522) was 12.6 µM (inactive). The GI50 (Malme-3M) was 16.4 µM (inactive), the GI50 (COLO 205) was 34.3 µM (inactive) and the GI50 (LXFL 529) was 20 µM (inactive). For the same compound, the GI50 (SF-268) was > 100 µM (inactive), the GI50 (CAKI-1) was > 100 µM (inactive) and the GI50 (SF-539) was > 100 µM (inactive). For the same compound, the GI50 (NCI-H226) was > 100 µM (inactive), the GI50 (OVCAR-8) was > 100 µM (inactive) and the GI50 (NCI-H460) was > 100 µM (inactive). For the same compound, the GI50 (M14) was > 100 µM (inactive), the GI50 (HCT-116) was > 100 µM (inactive) and the GI50 (KM12) was > 100 µM (inactive). The GI50 (SK-MEL-5) was > 100 µM (inactive), the GI50 (HOP-62) was > 100 µM (inactive) and the GI50 (DMS-273) was > 100 µM (inactive). The GI50 (NCI-H23) was 84.7 µM (inactive), the GI50 (SW-620) was 72.4 µM (inactive) and the GI50 (SNB-75) was > 100 µM (inactive). For the same compound, the GI50 (SNB-78) was 45.9 µM (inactive), the GI50 (OVCAR-3) was > 100 µM (inactive) and the GI50 (IGROV-1) was > 100 µM (inactive). The GI50 (K562) was 29.2 µM (inactive), the GI50 (LOX IMVI) was 35.2 µM (inactive) and the GI50 (UO-31) was > 100 µM (inactive). For the same compound, the GI50 (RXF 631) was > 100 µM (inactive), the GI50 (CCRF-CEM) was 29.4 µM (inactive) and the GI50 (SN12C) was > 100 µM (inactive). The GI50 (MOLT-4) was 31 µM (inactive), the GI50 (OVCAR-4) was > 100 µM (inactive) and the GI50 (SK-MEL-28) was 36.9 µM (inactive). The GI50 (TK-10) was > 100 µM (inactive), the GI50 (A498) was > 100 µM (inactive) and the GI50 (HCC 2998) was > 100 µM (inactive). For the same compound, the GI50 (SNB-19) was > 100 µM (inactive), the GI50 (786-0) was > 100 µM (inactive) and the GI50 (SF-295) was > 100 µM (inactive). The GI50 (SK-MEL-2) was 50.6 µM (inactive), the GI50 (XF498) was > 100 µM (inactive) and the GI50 (DMS-114) was > 100 µM (inactive). The GI50 (HT-29) was > 100 µM (inactive), the GI50 (SK-OV-3) was > 100 µM (inactive) and the GI50 (EKVX) was > 100 µM (inactive). For the same compound, the GI50 (OVCAR-5) was > 100 µM (inactive), the GI50 (HOP-18) was 13.5 µM (inactive) and the GI50 (DLD-1) was 38.5 µM (inactive).
